Data published in ChEMBL document CHEMBL1139652, “6H,13H-Pyrazino[1,2-a;4,5-a']diindole analogs: probing the pharmacophore for allosteric ligands of muscarinic M2 receptors” (Bioorg Med Chem Lett, 2006).
pEC50, pKi: −log10 of the molar value.

What was measured:
[1] = molecular target: T1, Muscarinic acetylcholine receptor M2 (Homo sapiens, UniProt P08172); assay: Inhibition of [3H]NMS dissociation from muscarinic M2 receptor in hepes buffer
T1 sequence (P08172 whole entry): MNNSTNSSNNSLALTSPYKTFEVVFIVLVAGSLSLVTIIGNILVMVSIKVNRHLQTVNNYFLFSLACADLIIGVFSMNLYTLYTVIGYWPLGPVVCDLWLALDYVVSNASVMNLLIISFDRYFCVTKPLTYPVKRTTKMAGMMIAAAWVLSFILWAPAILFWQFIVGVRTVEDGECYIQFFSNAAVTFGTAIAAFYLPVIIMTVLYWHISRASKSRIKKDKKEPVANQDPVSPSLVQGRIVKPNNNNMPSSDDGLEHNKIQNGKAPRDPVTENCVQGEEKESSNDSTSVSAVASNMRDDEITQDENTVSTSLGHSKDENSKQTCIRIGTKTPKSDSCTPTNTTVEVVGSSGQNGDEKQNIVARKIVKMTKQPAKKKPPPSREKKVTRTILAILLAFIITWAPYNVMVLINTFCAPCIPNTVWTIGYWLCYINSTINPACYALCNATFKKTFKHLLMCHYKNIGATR

[2] = molecular target: T1, Muscarinic acetylcholine receptor M2; assay: Inhibition of [3H]NMS dissociation from muscarinic M2 receptor in Na,K,Pi buffer
Acetylcholine receptor = Acetylcholine receptor (Torpedo californica, UniProt P02710+P02712+P02714+P02718); assay: Displacement of (+/-)-[3H]epibatidine from muscle type nAChR of Torpedo californica in hepes buffer; assay type: tissue-based, Tetronarce californica
Acetylcholine receptor, sequence (P02710 whole entry): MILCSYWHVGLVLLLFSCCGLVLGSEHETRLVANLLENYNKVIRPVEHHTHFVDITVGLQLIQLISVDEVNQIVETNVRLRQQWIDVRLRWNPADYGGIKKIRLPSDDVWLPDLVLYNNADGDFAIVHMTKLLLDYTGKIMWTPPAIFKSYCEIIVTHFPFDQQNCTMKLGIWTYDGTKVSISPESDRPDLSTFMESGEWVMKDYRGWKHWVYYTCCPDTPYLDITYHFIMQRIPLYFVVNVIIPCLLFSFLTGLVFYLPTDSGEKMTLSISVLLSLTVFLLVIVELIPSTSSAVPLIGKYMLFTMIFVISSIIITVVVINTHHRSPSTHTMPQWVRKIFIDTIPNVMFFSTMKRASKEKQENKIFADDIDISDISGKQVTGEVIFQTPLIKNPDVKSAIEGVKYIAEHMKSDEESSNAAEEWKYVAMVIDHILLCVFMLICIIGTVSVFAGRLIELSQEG
Acetylcholine receptor, sequence (P02712 whole entry): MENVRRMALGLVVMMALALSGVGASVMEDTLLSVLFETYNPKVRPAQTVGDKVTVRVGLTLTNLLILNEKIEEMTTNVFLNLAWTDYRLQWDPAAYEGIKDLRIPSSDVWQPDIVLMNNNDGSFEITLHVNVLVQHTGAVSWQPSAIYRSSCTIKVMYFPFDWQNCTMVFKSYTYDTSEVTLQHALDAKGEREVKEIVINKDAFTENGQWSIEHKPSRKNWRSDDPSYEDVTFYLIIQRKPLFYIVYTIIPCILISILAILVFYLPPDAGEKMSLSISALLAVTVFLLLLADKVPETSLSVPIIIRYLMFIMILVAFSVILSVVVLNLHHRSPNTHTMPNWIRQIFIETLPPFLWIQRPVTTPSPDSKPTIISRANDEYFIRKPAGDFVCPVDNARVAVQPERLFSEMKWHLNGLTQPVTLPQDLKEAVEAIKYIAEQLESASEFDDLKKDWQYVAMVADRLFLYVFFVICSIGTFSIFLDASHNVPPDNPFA
Acetylcholine receptor, sequence (P02718 whole entry): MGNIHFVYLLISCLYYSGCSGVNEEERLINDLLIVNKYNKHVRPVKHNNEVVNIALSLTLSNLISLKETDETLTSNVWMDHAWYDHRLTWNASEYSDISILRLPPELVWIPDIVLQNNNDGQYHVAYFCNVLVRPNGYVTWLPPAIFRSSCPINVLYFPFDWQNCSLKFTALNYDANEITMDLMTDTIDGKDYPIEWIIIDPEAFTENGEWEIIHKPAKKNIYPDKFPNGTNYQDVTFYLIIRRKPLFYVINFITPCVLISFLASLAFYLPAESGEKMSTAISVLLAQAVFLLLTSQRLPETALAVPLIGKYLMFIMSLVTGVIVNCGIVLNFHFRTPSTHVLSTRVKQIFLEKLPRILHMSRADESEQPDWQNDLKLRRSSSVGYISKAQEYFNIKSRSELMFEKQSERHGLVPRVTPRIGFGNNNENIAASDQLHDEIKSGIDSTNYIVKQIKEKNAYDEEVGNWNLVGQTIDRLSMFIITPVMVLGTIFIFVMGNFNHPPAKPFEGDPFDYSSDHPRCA
Acetylcholine receptor, sequence (P02714 whole entry): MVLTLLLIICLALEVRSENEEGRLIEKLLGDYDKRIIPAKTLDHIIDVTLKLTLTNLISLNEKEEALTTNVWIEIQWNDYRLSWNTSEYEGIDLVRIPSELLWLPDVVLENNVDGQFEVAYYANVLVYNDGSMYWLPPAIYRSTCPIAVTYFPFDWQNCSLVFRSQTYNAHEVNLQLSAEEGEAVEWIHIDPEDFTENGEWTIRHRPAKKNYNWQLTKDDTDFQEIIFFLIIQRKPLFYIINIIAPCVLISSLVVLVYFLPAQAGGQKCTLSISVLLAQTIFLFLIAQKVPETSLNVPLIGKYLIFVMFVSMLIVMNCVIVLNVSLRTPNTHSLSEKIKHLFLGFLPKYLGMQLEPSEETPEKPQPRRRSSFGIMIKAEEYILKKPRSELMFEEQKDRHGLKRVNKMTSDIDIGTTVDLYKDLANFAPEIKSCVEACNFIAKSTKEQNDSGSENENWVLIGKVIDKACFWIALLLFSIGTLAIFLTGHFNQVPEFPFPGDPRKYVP

[3] = Selectivity for muscle type nAChR over muscarinic M2 receptor in hepes buffer

| SMILES | pEC50 [1] | Selectivity ratio [3] | pEC50 [2] | pKi (Acetylcholine receptor) |
| --- | --- | --- | --- | --- |
| C=CC[N+]12CC[C@@]34c5ccccc5N5[C@@H]6OCC=C7C[N+]8(CC=C)CC[C@]9%10c%11ccccc%11N([C@@H]%11OCC=C(C1)[C@H](C[C@@H]32)[C@@H]%11[C@H]54)[C@H]9[C@H]6[C@H]7C[C@@H]%108 (stereo partly drawn) [DIALLYLCARACURIE V] | – | – | 7.95 | 5.82 |
| C[N+]12CC[C@@]34c5ccccc5N5[C@@H]6OCC=C7C[N+]8(C)CC[C@]9%10c%11ccccc%11N([C@@H]%11OCC=C(C1)[C@H](C[C@@H]32)[C@@H]%11[C@H]54)[C@H]9[C@H]6[C@H]7C[C@@H]%108 (stereo partly drawn) [DIMETHYLCARACURIE V] | – | – | 8.09 | 5.28 |
| C1=C2CN3CC[C@]45c6ccccc6N6[C@@H]7OCC=C8CN9CC[C@]%10%11c%12ccccc%12N([C@H](OC1)[C@@H]([C@H]64)[C@H]2C[C@H]35)[C@H]%10[C@H]7[C@H]8C[C@H]9%11 [CARACURINE V] | – | – | 6.36 | < 4.00 |

Second part, led by results:

| pEC50 [1] | Selectivity ratio [3] | SMILES | pEC50 [2] | pKi (Acetylcholine receptor) |
| --- | --- | --- | --- | --- |
| 4.78 | 1.5 | CN(C)Cc1c2n(c3ccccc13)Cc1c(CN(C)C)c3ccccc3n1C2 | 6.35 | 4.97 |
| 4.95 | 34 | C[N+](C)(C)Cc1c2n(c3ccccc13)Cc1c(C[N+](C)(C)C)c3ccccc3n1C2 | 6.64 | 6.48 |
| 5.64 | 4.2 | C=CC[N+](C)(C)Cc1c2n(c3ccccc13)Cc1c(C[N+](C)(C)CC=C)c3ccccc3n1C2 | 6.96 | 6.26 |
